In ChEMBL document CHEMBL1201862, “PubChem BioAssay data set” (2004):
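Protocol summary: plate cells (96-well), add compound at 5 concentrations, incubate 48 h, interpolate endpoints linearly. At the GI50, growth is halved.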 Activity calls are given as the source filed them. No stated cut-off is given here; in the data, active = GI50 up to about 1.1 µM and inactive = higher.

Columns and labels:
Assay in all cases: inhibition of tumour cell growth, NCI panel, 48 h
[1] = system: SF-295
[2] = system: SNB-19
[3] = system: Malme-3M
[4] = system: A549
[5] = system: ACHN
[6] = system: 786-0
[7] = system: KM12
[8] = system: RPMI-8226
[9] = system: SK-MEL-28
[10] = system: SF-539
[11] = system: SNB-75
[12] = system: HT-29
[13] = system: HOP-62
[14] = system: HCT-116
[15] = system: NCI-H460
[16] = system: HOP-92

Measured: GI50

Clc1ccc(C2=Nc3ccccc3SC(c3cccs3)C2)cc1 (centres undefined)
inactive: [1] 15 µM | [2] 16.4 µM | [3] > 10 µM | [4] 17.2 µM | [5] 15.3 µM | [6] 16.3 µM | [7] 10.7 µM | [8] 2.42 µM | [9] 17.6 µM | [10] 16.8 µM | [11] 16.9 µM | [12] 14.3 µM | [13] 18.2 µM | [14] 7.67 µM | [15] 15 µM

c1ccc2c(c1)CCc1c(-c3n[nH]c4c3CCc3ccccc3-4)n[nH]c1-2
inactive: [1] > 100 µM | [2] > 100 µM | [3] > 100 µM | [4] > 100 µM | [16] > 100 µM | [5] > 100 µM | [6] > 100 µM | [7] > 100 µM | [9] > 100 µM | [10] > 100 µM | [11] 56.5 µM | [12] 76.7 µM | [13] > 100 µM | [14] > 100 µM | [15] > 100 µM

CCOC(=O)C1=C(C)NC(=O)NC1c1ccc(OC)cc1OC (centres undefined)
inactive: [1] > 100 µM | [2] > 100 µM | [3] > 100 µM | [4] > 100 µM | [16] > 100 µM | [5] > 100 µM | [6] > 100 µM | [7] > 100 µM | [8] 79.1 µM | [11] > 100 µM | [12] > 100 µM | [13] > 100 µM | [14] > 100 µM | [15] > 100 µM

N=C(N)NNC(=O)CCCCCCCC(=O)NNC(=N)N
inactive: [1] > 100 µM | [2] > 100 µM | [3] > 100 µM | [4] > 100 µM | [5] > 100 µM | [6] > 100 µM | [7] > 100 µM | [9] > 100 µM | [10] > 100 µM | [12] > 100 µM | [13] > 100 µM | [14] > 100 µM | [15] > 100 µM

CCCc1c2c([nH]c(=O)c1C)C(=O)c1[nH]c(=O)c(C)c(CCC)c1C2=O
inactive: [1] 47.6 µM | [2] 18.7 µM | [3] 3.73 µM | [4] 23.7 µM | [16] 41 µM | [5] 7.48 µM | [6] 25.1 µM | [9] 23.6 µM | [10] > 100 µM | [11] 22.6 µM | [12] 4.75 µM | [13] > 100 µM | [14] 3.01 µM | [15] 14.5 µM

N=C(N)N/N=C/c1c[nH]c2ccccc12
inactive: [1] > 100 µM | [2] > 100 µM | [3] > 100 µM | [4] > 100 µM | [5] > 100 µM | [6] > 100 µM | [7] > 100 µM | [8] > 100 µM | [9] > 100 µM | [10] > 100 µM | [11] > 100 µM | [12] > 100 µM | [13] > 100 µM | [15] > 100 µM

CO[C@H](C(=O)O[C@H]1C(=O)N2CC[C@@H]3CCC[C@H]1C32C)c1ccccc1 (some centres undefined)
inactive: [1] > 100 µM | [2] > 100 µM | [3] > 100 µM | [4] > 100 µM | [5] > 100 µM | [6] > 100 µM | [7] > 100 µM | [8] > 100 µM | [9] > 100 µM | [10] > 100 µM | [12] > 100 µM | [13] > 100 µM | [14] > 100 µM | [15] > 100 µM
